≈ marks a conversion by molar mass, not a printed value. Where “and” joins values, the source holds several entries; their conditions need not be identical. Equal entries are not always repeated. Where two headings read alike, the source gives them in different places.
Experiments:
[1] = Solubility in buffer pH4, buffer pH2 and 0.01N HCl; assay type: physicochemical
[2] = Intrinsic dissolution (USP dissolution apparatus 2, tablet in PTFE holder, UV at 266 nm); assay type: physicochemical; settings: for average intrinsic dissolution rate / slope, average: average of samples 1-6, 0.01N HCl/methanol 1:1, 37° C.; for average intrinsic dissolution rate / slope, average / slope / intrinsic dissolution rate (IDR): 150 rpm; for slope, average: 0 to 60 min; for slope / intrinsic dissolution rate (IDR): single samples, 500 ml 0.01N HCl/methanol 1:1, 37° C.; for slope: slope calculated from 0 to 60 min; for intrinsic dissolution rate (IDR): tablet surface 0.5026 cm^2
Protocol: A Hanson Research SR6™ dissolution testing station equipped with a USP dissolution apparatus 2 as paddle and a poly(tetrafluoroethylene (PTFE) tablet holder was used. UV spectrometry was used to determine the concentration of TMC278 in solution. The UV analysis was carried out on an Agilent 8453™ spectrophotometer using a 2 ml cuvet. A single wavelength measurement at 266 nm was recorded with single component analysis (SCA), a single component measurement.
About 125 mg of the compound was weighed into a mould with a diameter of 0.8 cm. A tablet was made with a Speca press imposing a pressure of 1 ton for tabletting. The surface area of the tablet was 0.5026 cm^2. The tablet was adhered to the PTFE tablet holder.
21.8 mg of TMC278 was weighed into a volumetric flask of 25 ml. The product was dissolved in a 1:1.5 tetrahydrofuran/methanol mixture. A 1 ml aliquot was transferred into a 200 ml volumetric flask and diluted to the mark using 0.01N HCl. The concentration of the reference solution was […].
The tablet holders with the tablets were placed in a USP2 dissolution bath. The vessels contained 500 ml 0.01N HCl/methanol 1:1 and were thermostatically controlled at 37° C. The paddles were used with a rotation speed of 150 rpm (rounds per minute). A sample was withdrawn each 10 minutes and the concentration was determined with UV spectrometry. The slope was calculated on the measuring points between 0 and 60 minutes. The slope was expressed as mg %/minute. The intrinsic dissolution rate (IDR), expressed as mg/(cm^2×min), was calculated.

[3] = system: drug and multidrug resistant HIV strains; settings: in words; strains resistant to NNRTIs such as efavirenz, nevirapine, delavirdine; cited from earlier work
wild type HIV = settings: in words; described in WO 03/16306; cited from earlier work

SMILES	Solubility ([1]; 0.01N HCl, pH 2.1)	Solubility ([1]; Buffer pH4, pH 4.0)	Solubility ([1]; buffer pH2, pH 2.1, aqueous buffer, Buffer pH2, pH 2.1, read-out: Solubility)	solubility at lower pH, compared to Polymorph II ([1]; lower pH, in words)	average intrinsic dissolution rate [2]	slope, average [2]	intrinsic dissolution rates, compared to Polymorph II ([2]; in words)	slope [2]	intrinsic dissolution rate (IDR) [2]	average intrinsic dissolution rate ([2]; listed as polymorph II)	solubility in water ([1]; water, in words)	activity against drug and multidrug resistant HIV strains [3]	activity against wild type HIV (wild type HIV)
Cc1cc(/C=C/C#N)cc(C)c1Nc1ccnc(Nc2ccc(C#N)cc2)n1 [TMC278 polymorph I, (E) 4-[[4-[[4-(2-cyanoethenyl)-2,6-dimethylphenyl]amino]-2-pyrimidinyl]amino]benzonitrile]	4.1 mg/100 ml	0.07 mg/100 ml	6.4 µg/mL (≈ 17.5 µM)	increased solubility at lower pH	0.3362 mg/(cm^2 × min)	0.0338 mg %/minute	increased intrinsic dissolution rates	0.0358 mg %/minute and 0.0353 mg %/minute and 0.0309 mg %/minute and 0.0347 mg %/minute and 0.0343 mg %/minute and 0.0319 mg %/minute	0.3559 mg/(cm^2 × min) and 0.3508 mg/(cm^2 × min) and 0.3074 mg/(cm^2 × min) and 0.3447 mg/(cm^2 × min) and 0.3417 mg/(cm^2 × min) and 0.3169 mg/(cm^2 × min)	–	–	–	–
Cc1cc(/C=C/C#N)cc(C)c1Nc1ccnc(Nc2ccc(C#N)cc2)n1 [TMC278 polymorph II, 4-[[4-[[4-(2-cyanoethenyl)-2,6-dimethylphenyl]-amino]-2-pyrimidinyl]-amino-]-benzonitrile, reference compound]	1.9 mg/100 ml	0.03 mg/100 ml	–	–	0.2886 mg/(cm^2 × min)	0.0290 mg %/minute	–	0.0283 mg %/minute and 0.0281 mg %/minute and 0.0290 mg %/minute and 0.0305 mg %/minute and 0.0288 mg %/minute and 0.0294 mg %/minute	0.2819 mg/(cm^2 × min) and 0.2795 mg/(cm^2 × min) and 0.2886 mg/(cm^2 × min) and 0.3035 mg/(cm^2 × min) and 0.2861 mg/(cm^2 × min) and 0.2921 mg/(cm^2 × min)	0.2886 mg/(cm^2 × min)	–	–	–
Cc1cc(/C=C/C#N)cc(C)c1Nc1ccnc(Nc2ccc(C#N)cc2)n1 [TMC278, 4-[[4-[[4-(2-cyanoethenyl)-2,6-dimethylphenyl]-amino]-2-pyrimidinyl]-amino-]-benzonitrile]	–	–	–	–	–	–	–	–	–	–	relatively low solubility in water	shows activity	pronounced activity
